From publication PMC6587524 (Journal of Clinical Pharmacology, 2018)
Read-outs that look alike come from different tables or passages of the source.

Assays:
[1] = format: in vivo, healthy female subjects; design: AUC0-t, Central Value, Test / AUC0-t, Central Value, Reference / AUCinf, Central Value, Test / AUCinf, Central Value, Reference: unit not given beside the values; conditions: for Bioequivalence in the presence and absence of upadacitinib: 90% CIs of Cmax and AUC ratios within 0.8 to 1.25; for Tmax: median (minimum to maximum); for AUC(0-inf): AUCinf; for half-life: t1/2 (terminal half-life), harmonic mean (pseudo-standard deviation)
[2] = Safety assessment during the study; format: in vivo, healthy female subjects; conditions: period 2
JAK1 = conditions: cited from earlier work
[3] = cited from earlier work
other JAK isoforms = conditions: relative to JAK1; cited from earlier work
cytochrome P450 (CYP) 3A = conditions: coadministration following multiple doses of ketoconazole; cited from earlier work
[4] = ethinylestradiol/levonorgestrel 0.03/0.15 mg with upadacitinib 30 mg QD, period 2, N = 20
[5] = ethinylestradiol/levonorgestrel 0.03/0.15 mg alone, period 1 day 1, N = 22, mean ± SD
[6] = ethinylestradiol/levonorgestrel 0.03/0.15 mg with upadacitinib 30 mg QD, period 2, N = 20, mean ± SD
[7] = period 1, day 1 (oral contraceptive alone), repeated measures analysis
[8] = period 2, day 12 (with upadacitinib 30 mg QD), repeated measures analysis

## C#C[C@]1(O)CC[C@H]2[C@@H]3CCc4cc(O)ccc4[C@H]3CC[C@@]21C [Ethinylestradiol]
[1]
  Bioequivalence in the presence and absence of upadacitinib: bioequivalent
[1]; [4]
  Tmax: 1.5 (1.0–3.0) h
[1]; female, human, plasma, po, AUC0-t, Central Value, Test, period 2, day 12 (with upadacitinib 30 mg QD), repeated measures analysis
  AUC(0-t): 0.39 ng·h/mL
[1]; female, human, plasma, po, AUC0-t, ethinylestradiol/levonorgestrel 0.03/0.15 mg alone, period 1 day 1, N = 22, mean ± SD
  AUC(0-t): 0.378 ± 0.154 ng·h/mL
[1]; female, human, plasma, po, AUC0-t, ethinylestradiol/levonorgestrel 0.03/0.15 mg with upadacitinib 30 mg QD, period 2, N = 20, mean ± SD
  AUC(0-t): 0.426 ± 0.137 ng·h/mL
[1]; female, human, plasma, po, Central Value, Test, period 2, day 12 (with upadacitinib 30 mg QD), repeated measures analysis
  AUC(0-inf): 0.445 ng·h/mL
[1]; female, human, plasma, po, ethinylestradiol/levonorgestrel 0.03/0.15 mg alone, period 1 day 1, N = 22, mean ± SD
  AUC(0-inf): 0.441 ± 0.193 ng·h/mL
[1]; female, human, plasma, po, ethinylestradiol/levonorgestrel 0.03/0.15 mg alone, period 1 day 1, N = 22
  half-life: 7 h
[1]; female, human, plasma, po, ethinylestradiol/levonorgestrel 0.03/0.15 mg with upadacitinib 30 mg QD, period 2, N = 20
  half-life: 7.7 h

## C#C[C@]1(O)CC[C@H]2[C@@H]3CCC4=CC(=O)CC[C@@H]4[C@H]3CC[C@@]21CC [Levonorgestrel]
[1]
  Bioequivalence in the presence and absence of upadacitinib: bioequivalent
[1]; [5]
  AUC(0-t): 43.0 ± 18.4 ng·h/mL
  AUCinf: 51.7 ± 22.0 ng·h/mL
  Cmax: 3.9 ± 1.4 ng/mL
[1]; ethinylestradiol/levonorgestrel 0.03/0.15 mg alone, period 1 day 1, N = 22
  Tmax: 0.8 (0.5–2.0) h
[1]; [6]
  AUC(0-t): 38.7 ± 12.1 ng·h/mL
  AUCinf: 49.5 ± 20.4 ng·h/mL
  Cmax: 3.7 ± 1.15 ng/mL
[1]; [4]
  Tmax: 0.8 (0.5–2.0) h
[1]; [7]
  AUC0-t, Central Value, Reference: 39.6
  AUCinf, Central Value, Reference: 47.6
[1]; [8]
  AUC0-t, Central Value, Test: 36.3
  AUCinf, Central Value, Test: 45.5

## CC[C@@H]1CN(C(=O)NCC(F)(F)F)C[C@@H]1c1cnc2cnc3[nH]ccc3n12 [Upadacitinib]
[2]
  relation of treatment-emergent adverse events to upadacitinib: not considered to have a reasonable possibility of being related
JAK1
  JAK1 inhibition: potently inhibits JAK1
[3]; extended-release formulation
  accumulation upon multiple QD dosing: No significant accumulation
[3]; in vivo
  administered dose eliminated in urine and feces as unchanged upadacitinib: > 60%
[3]; multiple QD dosing, extended-release formulation
  time to steady state: ≤ 4 days
Other JAK isoforms
  potency against the other JAK isoforms: less potent
[1]; upadacitinib 30 mg QD repeated doses
  effect of upadacitinib on the exposures of ethinylestradiol or levonorgestrel: no effect
Cytochrome P450 (CYP) 3A
  increase in upadacitinib AUC: 75%
  increase in upadacitinib Cmax: 70%
